Like-named read-outs stand apart in the source and are kept apart here.

Test [1] addresses T1, rHuTS (Homo sapiens, UniProt P04818).
T1 construct: His tag (N); made in house; host or cells: E. coli BL21 (DE3), pET-28a(+)
Kind of test: Inhibition of rHuTS reactions by Tomudex and 5-FdUMP. It counts as biochemical. The note with it: for activity at 0.5 µM: read-out: rate as % of No Inhibitor. The method, then: M. Enzyme Assays and Kinetic Measurements. Thymidylate synthase assays were done in 96 well Costar UV transparent plates in a reaction volume of 200 μl, consisting of 40 mM Tris pH 7.5, 25 mM MgCl2, 1 mM EDTA, 25 mM-mercaptoethanol, 125 µM dUMP, and 65 μM N5, N1O-methylene tetrahydrofolate indicated. Tetrahydrofolate stock solutions were prepared by dissolving tetrahydrofolic acid (Sigma) directly into 0.2 M Tris pH 7.5, 0.5 M-mercaptoethanol; stock solutions were stored at −80° C. N5, N10-methylene tetrahydrofolate was prepared by adding 12 μl of 3.8% formaldehyde to 1 ml of a 0.65 mM solution of tetrahydrofolate and incubating for 5 minutes at 37° C. N5, N10-methylene tetrahydrofolate was kept on ice and used within 2 hours of preparation.
Conversion of BVdUMP to fluorescent product(s) by thymidylate synthase was measured in 200 µl thymidylate synthase reactions containing 125 µM BVdUMP in 96 well Dynex Microfluor Black “U” bottom microtiter plates using an excitation wavelength of 340 nm and emission wavelength of 595 nm. Fluorescence was measured with a Tecan Spectrafluor Plus fluorimeter.
Inhibition of rHuTS reactions by Tomudex and 5-FdUMP. Thymidylate synthase reactions containing enzyme inhibitors or cofactor were incubated at 30° C. as described in Materials and Methods, and the initial rates of the enzyme reaction were determined by measuring the increase in relative fluorescence units at 340 nm excitation, 595 nm emission for the BVdUMP reactions, or increase in A340 for the dUMP reaction.

For test [2], the system named is MCF7 (Breast) tumor cells. Kind of test: alamarBlue growth inhibition, MCF7. Conditions: Homo sapiens. It counts as cell-based. The method, then:
(§1) J. Growth Inhibition Studies. Cells growing exponentially were transferred to 384-well flat bottom tissue culture plates. All cell types were plated at a density of 500 cells per well in 25 μL of complete medium (RPMI 1640+10% fetal bovine serum+antibiotics/antimycotics). After 24 hours (day 0), 25 μL of complete medium containing the experimental compounds over the dose range of 10^ñ3 to 10^ñ10 M were added in triplicate. […] 5 μL of the redox indicator, alamarBlue, was added to each well (10% v/v). After 4 hours incubation at 37° C., fluorescence was monitored at 535 nm excitation and 595 nm emission.
(§2) Concentration vs. relative fluorescence units (RFU) were plotted, and sigmoid curves were fit using the Hill equation.
In general terms: Resazurin is reduced to fluorescent resorufin, in cell work by metabolically active cells.

In test [3] the test system is normal and tumor cell types. Kind of test: Tumor/normal cell screen, panel averages and therapeutic index. The format is cell-based, human. The method, then: (§3) J. Growth Inhibition Studies. Cells growing exponentially were transferred to 384-well flat bottom tissue culture plates. All cell types were plated at a density of 500 cells per well in 25 μL of complete medium (RPMI 1640+10% fetal bovine serum+antibiotics/antimycotics). After 24 hours (day 0), 25 μL of complete medium containing the experimental compounds over the dose range of 10^ñ3 to 10^ñ10 M were added in triplicate. Drug exposure time was 120 hours (day 5), after which growth inhibition was assayed. 5 μL of the redox indicator, alamarBlue, was added to each well (10% v/v). After 4 hours incubation at 37° C., fluorescence was monitored at 535 nm excitation and 595 nm emission.
as §2
Assays were carried out as described in Methods, above. Therapeutic index is calculated as the ratio of the average IC50 for normal cells to the average IC50 for tumor cells. All assays were done at least three times.

Test [4] concerns TSL/HT1080 cells (TS Level 702%). The test can be described thus: alamarBlue growth inhibition, HT1080 clone with TS level 702%. It counts as cell-based. Conditions: Homo sapiens, HT-1080, TSL/HT1080 (second line). The method, then:
(§4) F. Cell lines and transfection. HT1080 cells were grown in PRMI1640 medium supplemented with 10% fetal calf serum, and transfected with GFP-TS expression vector. 48 hours after, transfection cells were tripsinized and replated in culture medium containing 750 μg/ml G418. After selection with G418 for two weeks, surviving cells were sorted based upon fluorescence expression. One clone with higher fluorescence expression (named as TSH/HT1080) and one clone with lower fluorescence expression (named as TSL/HT1080) were selected and expanded into cells lines. The stable HT1080 cells transfected with pEGFP-C3 were used as control.
(§5) G. Construction of GFP-TS expression vector. […]
(§6) J. Growth Inhibition Studies. […] After 4 hours incubation at 37° C., fluorescence was monitored at 535 nm excitation and 595 nm emission.
as §2
(§7) A cDNA encoding rHuTS was subcloned into ventor pEGFP-C3, in-frame with GFP. […] Individual cells were cloned based upon high or low fluorescence expression as described in Methods. *TS levels were determined by using Western blot analysis, the quantified expression levels were expressed as values relative to that of cell strain CCD18co.

Test [5] relates to MCF7 TDX Tomudex-resistant breast cancer cells. The test can be described thus: alamarBlue growth inhibition, MCF7 TDX. The format is cell-based. The note with it: Homo sapiens. The method, then: as §3, §2
(§8) O. Reversal of Resistance. The origin and characteristics of the human breast cancer MCF7 TDX cell line have been previously described (Drake, et al. (1996) Biochem. Pharmcol. 51(10): 1349-1355). Briefly, MCF-7 breast cancer cells were selected in vitro for resistance to Tomudex by continuous exposure to stepwise increases in TDX concentrations up to 2.0 μM.

In test [6] the test system is H630R10 5FU-resistant colon tumor cells. The test can be described thus: alamarBlue growth inhibition, H630R10. It counts as cell-based, human. The method, then:
as §1, §2

In test [7] the test system is CCD18co normal colon epthelial cell. Kind of test: Thymidine rescue, alamar blue. The format is cell-based, human. Conditions: for rescue by thymidine: 10 uM thymidine; for IC50: Homo sapiens, CCD-18Co. The text has this: An additional approach was taken to understanding whether NB1011 might interfere with cell growth primarily by inactivating TS. This approach is based upon thymidine rescue of TS-blocked cells. […] For this reason, they survive only by scavenger mechanisms. One of the important scavenger mechanisms is utilization of extracellular thymidine. Thymidine incorporated by target cells can be converted to dTMP, usually by thymidine kinase, and thus continue DNA synthesis. Other pathways for use of exogenous thymidine have also been described If an important mechanism for NB1011 activity is via inhibition of endogenous TS, then the cytotoxicity should be relieved when thymidine is added to the cell culture media. For this experiment, a number of tumor cell lines were screened for their sensitivity to Tomudex and 5FdUrd, and ability to be rescued from these agents via thymidine supplementation. […] Experiments were carried out as described by (Patterson, et al. (1998) Cancer Res. 58: 2737-2740) with or without 10 uM thymidine, except that the alamar blue assay (see Materials and Methods) was employed to determine cytotoxicity.

Test [8] deals with T2, recombinant human thymidylate synthase (rHuTS) (Homo sapiens, UniProt P04818).
T2 construct: His tag (N); made in house; host or cells: E. coli BL21 (DE3), pET-28a(+)
T2 sequence (P04818 whole entry): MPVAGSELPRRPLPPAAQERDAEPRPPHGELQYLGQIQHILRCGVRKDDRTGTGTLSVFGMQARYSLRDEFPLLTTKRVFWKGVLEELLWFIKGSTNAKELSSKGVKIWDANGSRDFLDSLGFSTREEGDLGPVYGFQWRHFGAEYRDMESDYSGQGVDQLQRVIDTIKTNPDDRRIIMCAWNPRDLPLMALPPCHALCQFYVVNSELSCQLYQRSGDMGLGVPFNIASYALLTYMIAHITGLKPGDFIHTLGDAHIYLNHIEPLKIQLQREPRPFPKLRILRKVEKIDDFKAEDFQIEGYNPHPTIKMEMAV
Kind of test: Enzyme kinetics of rHuTS with dUMP and BVdUMP. It counts as biochemical. The method, then:
L. Enzyme Preparation. Cloned human thymidylate synthase plasmid pBCHTS was subcloned into E. coli. BL21 (DE3)/pET-28a(+) (Novagen) using the NdeI ñSacI insertion site, in order to add an amino terminal His tag. […] M. Enzyme Assays and Kinetic Measurements. […] Tetrahydrofolate stock solutions were prepared by dissolving tetrahydrofolic acid (Sigma) directly into 0.2 M Tris pH 7.5, 0.5 M-mercaptoethanol; stock solutions were stored at -80° C. […] N5, N10-methylene tetrahydrofolate was kept on ice and used within 2 hours of preparation. […] The catalytic efficiency of the enzyme (Kcat/Km) was calculated from the kinetic constants Km and Vmax.

In test [9] the target is T1, rHuTS. Kind of test: Impact of folate inhibitors, cell-free rHuTS substrate utilization. Conditions: for remaining activity: MTX 140 μM, LV 140 μM or TDX 5 μM. It counts as biochemical. The method, then: M. Enzyme Assays and Kinetic Measurements. […] Tetrahydrofolate stock solutions were prepared by dissolving tetrahydrofolic acid (Sigma) directly into 0.2 M Tris pH 7.5, 0.5 M-mercaptoethanol; stock solutions were stored at −80° C. […] N5, N10-methylene tetrahydrofolate was kept on ice and used within 2 hours of preparation.
Cell-free assays using rHuTS, the appropriate substrate and other components were combined as described in Methods. […] Utilization of substrate (either BVdUMP or THF) was employed as a measure of reaction rate. The numbers indicate remaining activity.

Test [10] relates to C/HT1080 cells. Kind of test: alamarBlue growth inhibition, C/HT1080 control. It counts as cell-based. Conditions: Homo sapiens, HT-1080; C/HT1080, TS Level 100%. The method, then: as §4, §5, §6, §2, §7
Test [11] relates to TSL/HT1080 cells (GFP-TS, lower expression). The test can be described thus: alamarBlue growth inhibition, TSL/HT1080. The format is cell-based. Conditions: Homo sapiens, HT-1080; TSL/HT1080, TS Level 409%. The method, then: as §4, §5, §6, §2, §7
Test [12] concerns MCF7 TDX/1011 cells. Kind of test: alamarBlue growth inhibition, MCF7 TDX/1011. It counts as cell-based. The note with it: Homo sapiens. The method, then:
as §3, §2, §8

Setting [13] is: BVdUMP − THF, inhibitor 500 nM, relative fluorescence units.

T1 sequence (P04818 whole entry): as above

In the case of `O=c1[nH]c(=O)n([C@H]2C[C@H](O)[C@@H](COP(=O)(O)O)O2)cc1F` [5-FdUMP], the “initial rate of rHuTS reaction” value amounted to 44 ± 2 RFU/min in [1] (BVdUMP + THF, inhibitor 500 nM); 93 ± 13 in [1] (setting [13]); 290 ± 70 nmol/min in [1] (dUMP + THF, inhibitor 500 nM).
With `O=c1[nH]cc(F)c(=O)[nH]1` [5FU, 5-fluorouracil], the IC50 (as a rule, the concentration that inhibits the measured activity by half) in test [2] was determined as 10 µM; in [4], 3.5 µM; in test [5] it was 32 µM. In test [3] (overall), the “more toxic to normal cells than to tumor cells” value is given as 3 fold. In addition, the “Therapeutic index (N/T)” value in test [3] (ratio of average IC50 normal cells to average IC50 tumor cells) is given as 0.30.
With `O=c1[nH]c(=O)n([C@H]2C[C@H](O)[C@@H](CO)O2)cc1F` [5FUdR, 5-fluoro-2′-deoxyuridine], the “more toxic to normal colon cells (CCD18co) than to 5FU-resistant H630R10 tumor cells” value in [6] was “about 18 fold”. The rescue by thymidine result in test [7] is listed as “greater than 590 fold”.
With `O=c1[nH]c(=O)n([C@H]2C[C@H](O)[C@@H](COP(=O)(O)O)O2)cc1/C=C/Br` [BVdUMP, (E)5-(2-Bromovinyl)-2′-deoxyuridine 5′-monophosphate], in test [8] (20 μM BVdUMP, dUMP 10 to 100 μM), the “type of inhibition with dUMP in rHuTS” value is on record as “competitive”. Moreover, the “increase in catalytic efficiency of BVdUMP conversion, human enzyme vs L. casei enzyme” value in test [8] (relative to endogenous substrate dUMP) is more than 6.4 fold. The “initial rate of rHuTS reaction” value is on record as 109 ± 16 RFU/min in test [1] (BVdUMP + THF, No Inhibitor, 30° C.) and 75 ± 11 in test [1] (BVdUMP − THF, No Inhibitor, relative fluorescence units). In test [9] (BVdUMP, w/o THF, Inhibitor None), the “substrate utilization rate relative to reaction with THF” value stood at 138%.
Take `Nc1nc2c(c(=O)[nH]1)N(C=O)C(CNc1ccc(C(=O)N[C@@H](CCC(=O)O)C(=O)O)cc1)CN2` (stereo partly shown) [LV, 5-formyltetrahydrofolate]: the remaining activity (as a rule, what remains of the control signal, in per cent) in [9] (BVdUMP, w/o THF) is given as 97%; in test [9] (BVdUMP, with THF) it was 17%; in test [9] (dUMP, with THF) it was 77%.
As for `Cc1nc2ccc(CN(C)c3ccc(C(=O)N[C@@H](CCC(=O)O)C(=O)O)s3)cc2c(=O)[nH]1` [Tomudex], the “initial rate of rHuTS reaction” value is 67 ± 3 RFU/min in [1] (BVdUMP + THF, inhibitor 500 nM); 34 ± 3 in test [1] (setting [13]); 690 ± 40 nmol/min in test [1] (dUMP + THF, inhibitor 500 nM). Also, the activity at 0.5 µM in test [1] (BVdUMP + THF, inhibitor 500 nM) is 61%; in [1] (BVdUMP − THF, inhibitor 500 nM), 45%; in test [1] (dUMP + THF, inhibitor 500 nM) it was 46%. Further, the remaining activity in test [9] (BVdUMP, w/o THF) came to 25%; in test [9] (BVdUMP, with THF), 0%; in test [9] (dUMP, with THF) it was 18%. Also, the IC50 was 0.026 µM in [2]; 3.6 µM in test [10]; 24 µM in test [11]; 153 µM in [4]; more than 10 µM in [5]; 0.041 µM in test [12]. Also, the figures for the IC50 in test [7] (with 10 uM thymidine) and in [7] (without thymidine) were 0.095 µM and 0.0065 µM, respectively. Further, in test [7], the rescue by thymidine is on record as 15 fold.
For the molecule `O=c1ccn([C@H]2C[C@H](O)[C@@H](COP(=O)(O)O)O2)c(=O)[nH]1` [dUMP, Deoxguridine Monophosphate], in [1] (dUMP + THF, No Inhibitor, A340), the “initial rate of rHuTS reaction” value amounted to 1500 ± 20 nmol/min.

Source of the values: patent US7419968B1, “Methods for treating therapy-resistant tumors” (Celmed Oncology (USA), Inc., priority 1999, dated 2008).
